Experimental data reported in patent US20230000891A1, “HYBRID AMPHOTERICIN B DERIVATIVES WITH REDUCED TOXICITY” (The Board of Trustees of the University of Illinois, priority 2019, published 2023).
≈ marks a conversion by molar mass, not a printed value. Where two headings read alike, the source gives them in different places.

Experiments:
C. tropicalis = test: Minimum Inhibition Concentration (MIC), antifungal activity; type: cell-based
C. krusei = test: as above; type: cell-based
A. fumigatus 1163 = test: as above; type: cell-based
A. fumigatus 91 = test: as above; type: cell-based
C. albicans [1] = test: as above; type: cell-based
A. fumigatus 1100 = test: as above; type: cell-based
C. albicans [2] = test: MIC with and without pre-complexation with ergosterol; type: cell-based; settings: sponge pre-complexed with ergosterol
Description: Anderson, T. M. et al., Nat Chem Biol 2014, 10 (5), 400-6. […] Davis, S. A., et al., Nat Chem Biol 2015, 11 (7), 481-7. To test whether C2′epiAmB primarily kills cells via the same sterol sponge mechanism, the C2′epiAmB sponge was similarly pre-complexed with ergosterol (FIG. 9). […] Thus, C2′epiAmB similarly kills yeast primarily via sterol binding, and, by extension, the new compounds targeted in this application are expected to have a similar barrier to fungal resistance that has been observed for the past 50+ years with AmB.

C. glabrata = test: Minimum Inhibition Concentration (MIC), antifungal activity; type: cell-based
[3] = Cmax after IV administration; type: in vivo, rats; settings: C2′epiAmB at 17.5 mg/kg vs AmB at 1 mg/kg
human red blood cells = test: Toxicity to human red blood cells; type: cell-based
[4] = tested on: Candida and Aspergillus clinical isolates; test: In vitro antifungal activity, clinical isolates (Evotec); type: cell-based; settings: many Candida and several Aspergillus strains
Description: (§1) In vitro antifungal activity of C2′epiAmB was compared with that of AmB against an extensive series of Candida and Aspergillus clinical isolates (FIG. 8A) at Evotec (Oxfordshire, UK). […] C2′epiAmB was also sent to the US national Fungus Testing Laboratory at UT-San Antonio for antifungal testing against an extended panel of especially challenging 40 Aspergillus clinical isolates, including azole-resistant A. fumigatus, A. flavus, and A. terreus (FIG. 8B). […] Recently, Steinbach and Burke directly compared the activity of AmB, AmBisome*, caspofungin, voriconazole, and C2′epiAmB against an even broader panel of clinically relevant invasive molds (FIG. 8C).

[5] = Intravenous toxicity in rats (BUN, ALT/AST, mortality); type: in vivo; settings: IV, 2, 10, and 17.5 mg/kg (highest dose tested)
Method: >100 mg of C2′epiAmB was prepared, formulated it as the corresponding deoxycholate complex, and evaluated this derivative head-to-head with AmB-deoxycholate for toxicity and efficacy in animal models. […] Alternatively, no elevations in BUN or ALT/AST and no mortality when rats were treated with IV injections of C2′epiAmB at doses of 2, 10, and 17.5 mg/kg (the highest dose that was tested) was observed.

[6] = Isothermal titration calorimetry (ITC) sterol binding; settings: within the detection limits of ITC
Description: This key discovery opened a path to the rational development of a non-toxic AmB variant. To probe its predicted role in sterol binding, the hydroxyl group was synthetically deleted at the C2′ position on the mycosamine appendage. […] Consistent with the sterol sponge model, this derivative retained good activity against yeast but, most importantly, was nontoxic to human red blood cells and primary (hREC) (FIG. 2B).
A practical 11-step synthesis of C2′epiAmB using a frontier site-selective acylation method was developed (FIG. 4). Wilcock, B. C. et al., Nat Chem 2012, 4 (12), 996-1003; Uno, B. E. A synthesis enabled understanding of Amphotericin B leading to derivatives with improved therapeutic indices. University of Illinois at Urbana-Champaign, 2014. The sterol binding and cell killing activities was then determined.

[7] = tested on: clinically relevant invasive molds; test: Antifungal activity, broader panel of clinically relevant invasive molds; type: cell-based; settings: many strains, including a pan-azole resistant strain (F14196)
Description: as §1

A. fumigatus = test: In vitro antifungal activity, A. fumigatus strains (Evotec); type: cell-based
Description: as §1

[8] = tested on: 40 Aspergillus clinical isolates, including azole-resistant A. fumigatus, A. flavus, and A. terreus; test: Antifungal testing, extended panel of 40 Aspergillus clinical isolates (Fungus Testing Laboratory, UT-San Antonio); type: cell-based
Description: as §1

yeast = test: Activity against yeast / fungal cell killing; type: cell-based
primary hREC = test: Toxicity to primary human renal epithelial cells; type: cell-based
C. albicans [9] = test: Murine model of invasive candidiasis; type: in vivo, Neutropenic ICR/Swiss mice; settings: single IP injection
Description: Andes, D. et al., Antimicrobial agents and chemotherapy 2001, 45 (3), 922-6. In fact, the PD parameter that best correlates with outcome is Cmax−/MIC. The same was subsequently observed in a pulmonary model of invasive aspergillosis. Wiederhold, N. P. et al., Antimicrobial agents and chemotherapy 2006, 50 (2), 469-73.

With `C[C@@H]1[C@H](O)[C@@H](C)/C=C/C=C/C=C/C=C/C=C/C=C/C=C/[C@H](OC2O[C@H](C)[C@@H](O)[C@H](N)[C@@H]2O)CC2O[C@](O)(CC(O)CC(O)[C@H](O)CCC(O)CC(O)CC(=O)O[C@H]1C)CC(O)[C@H]2C(=O)O` (stereo partly shown) [AmB, Amphotericin B] the MIC (C. tropicalis; Candida tropicalis) was 2 µM (≈ 1.85 µg/mL), the MIC (C. krusei; Pichia kudriavzevii) was 2 µM (≈ 1.85 µg/mL) and the MIC (A. fumigatus 1163; Aspergillus fumigatus) was 2 µM (≈ 1.85 µg/mL). The MIC (A. fumigatus 91; Aspergillus fumigatus) was 2 µM (≈ 1.85 µg/mL), the MIC (C. albicans [1]; Candida albicans) was 0.5 µM (≈ 0.462 µg/mL) and the MIC (A. fumigatus 1100; Aspergillus fumigatus) was 2 µM (≈ 1.85 µg/mL). For the same compound, the “change in potency upon ergosterol pre-complexation” value (C. albicans [2]) was “same reduction in potency” and the MIC (C. glabrata; Nakaseomyces glabratus) was 0.5 µM (≈ 0.462 µg/mL).

`COC(=O)[C@H]1[C@@H]2C[C@@H](O[C@@H]3O[C@H](C)[C@@H](O)[C@H](N)[C@H]3O)/C=C/C=C/C=C/C=C/C=C/C=C/C=C/[C@H](C)[C@@H](O)[C@@H](C)[C@H](C)OC(=O)C[C@H](O)C[C@H](O)CC[C@@H](O)[C@H](O)C[C@H](O)C[C@](O)(C[C@@H]1O)O2` [C2'epiAmBME] gave an MIC (C. tropicalis) of 2 µM (≈ 1.88 µg/mL), an MIC (C. krusei) of 2 µM (≈ 1.88 µg/mL) and an MIC (A. fumigatus 1163) of 4 µM (≈ 3.75 µg/mL). It also gave an MIC (A. fumigatus 91) of 4 µM (≈ 3.75 µg/mL), an MIC (C. albicans [1]) of 1 µM (≈ 0.938 µg/mL) and an MIC (A. fumigatus 1100) of 4 µM (≈ 3.75 µg/mL). It also gave an MIC (C. glabrata) of 4 µM (≈ 3.75 µg/mL).

For `C[C@@H]1[C@H](O)[C@@H](C)/C=C/C=C/C=C/C=C/C=C/C=C/C=C/[C@H](O[C@@H]2O[C@H](C)[C@@H](O)[C@H](N)[C@H]2O)C[C@@H]2O[C@](O)(C[C@@H](O)C[C@@H](O)[C@H](O)CC[C@@H](O)C[C@@H](O)CC(=O)O[C@H]1C)C[C@H](O)[C@H]2C(=O)O` [C2′epiAmB], the “Cmax relative to Cmax for AmB at 1 mg/kg” value [3] was greater than 16 fold, the “toxicity to human red blood cells” value (human red blood cells) was “non-toxic” and the “in vitro antifungal activity” value [4] was “good activity”. For the same compound, the MIC (C. tropicalis) was 4 µM (≈ 3.7 µg/mL), the ALT/AST [5] was “no elevations” and the “Blood Urea Nitrogen (BUN)” value [5] was “no elevations”. For the same compound, the mortality [5] was “no mortality”, the “cholesterol binding by ITC” value [6] was “not (detectably) cholesterol” and the “ergosterol binding by ITC” value [6] was “bind ergosterol”. For the same compound, the antifungal potency [7] was “good antifungal potency”, the “potency relative to AmB (less potent)” value (A. fumigatus; A. fumigatus strain AF91) was greater than 32 times and the “potency relative to AmB (less potent)” value (A. fumigatus; A. fumigatus strains AF293, A1163, and ATC204305) was 4 fold. It also gave an MIC (C. krusei) of 4 µM (≈ 3.7 µg/mL), an MIC (A. fumigatus 1163) greater than 64 µM and an MIC (A. fumigatus 91) greater than 64 µM. For the same compound, the “average potency relative to AmB (less potent)” value ([8]; average across all 40 strains) was 5.6 fold, the “potency relative to AmB (less potent)” value ([8]; range over 40 Aspergillus clinical isolates) was 2-16 times and the MIC (C. albicans [1]) was 4 µM (≈ 3.7 µg/mL). The “activity against yeast / fungal cells” value (yeast) was “kill fungal”, the MIC (A. fumigatus 1100) was 32 µM (≈ 29.6 µg/mL) and the “change in potency upon ergosterol pre-complexation” value (C. albicans [2]) was “same reduction in potency”. For the same compound, the MIC (C. glabrata) was 8 µM (≈ 7.39 µg/mL), the “toxicity to primary hREC” value (primary hREC) was “non-toxic” and the fungal burden (C. albicans [9]; 16 mg/kg dose) was “outstanding reductions in fungal burden”. The efficacy (C. albicans [9]; deoxycholate complex, 1, 4, 8, or 16 mg/kg) was “dose-dependent efficacy”.
